What was measured:
Assay in all cases: KINOMEscan competition binding
EPHB6 = target: T1, EPHB6 (Homo sapiens, UniProt O15197); details: read-out: %Inh EPHB6
T1 sequence (O15197 32-1021): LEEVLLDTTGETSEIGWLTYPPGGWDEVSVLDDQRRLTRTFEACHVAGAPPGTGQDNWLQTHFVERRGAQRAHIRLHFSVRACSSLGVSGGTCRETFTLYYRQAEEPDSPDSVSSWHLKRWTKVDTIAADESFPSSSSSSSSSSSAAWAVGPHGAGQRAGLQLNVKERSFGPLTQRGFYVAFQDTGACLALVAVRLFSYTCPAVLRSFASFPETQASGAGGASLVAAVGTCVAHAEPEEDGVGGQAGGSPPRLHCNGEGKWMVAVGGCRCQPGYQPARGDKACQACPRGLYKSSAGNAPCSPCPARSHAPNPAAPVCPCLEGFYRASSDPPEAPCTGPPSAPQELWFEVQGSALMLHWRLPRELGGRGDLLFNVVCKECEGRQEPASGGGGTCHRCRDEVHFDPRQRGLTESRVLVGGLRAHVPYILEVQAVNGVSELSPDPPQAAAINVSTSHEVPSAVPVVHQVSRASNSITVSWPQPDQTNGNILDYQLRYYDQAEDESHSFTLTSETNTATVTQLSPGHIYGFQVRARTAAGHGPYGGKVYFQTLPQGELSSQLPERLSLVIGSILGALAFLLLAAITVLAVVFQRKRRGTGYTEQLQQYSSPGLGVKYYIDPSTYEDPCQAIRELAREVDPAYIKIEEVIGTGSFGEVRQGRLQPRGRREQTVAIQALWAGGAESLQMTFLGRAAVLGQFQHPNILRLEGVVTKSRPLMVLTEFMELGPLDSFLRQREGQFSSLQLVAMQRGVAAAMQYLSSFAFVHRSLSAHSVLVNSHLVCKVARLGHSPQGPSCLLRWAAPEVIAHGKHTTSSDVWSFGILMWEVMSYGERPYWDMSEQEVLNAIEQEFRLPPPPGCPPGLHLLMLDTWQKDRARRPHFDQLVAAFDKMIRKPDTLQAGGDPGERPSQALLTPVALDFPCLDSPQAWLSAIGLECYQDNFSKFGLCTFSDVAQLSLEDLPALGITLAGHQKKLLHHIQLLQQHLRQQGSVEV

CDK4-cyclinD3 = CDK4-cyclinD3 (Homo sapiens, UniProt P11802); details: read-out: %Inh CDK4-cyclinD3
ASK2 = target: T2, ASK2 (Homo sapiens, UniProt O95382); details: read-out: %Inh ASK2
T2 sequence (O95382 1-1288): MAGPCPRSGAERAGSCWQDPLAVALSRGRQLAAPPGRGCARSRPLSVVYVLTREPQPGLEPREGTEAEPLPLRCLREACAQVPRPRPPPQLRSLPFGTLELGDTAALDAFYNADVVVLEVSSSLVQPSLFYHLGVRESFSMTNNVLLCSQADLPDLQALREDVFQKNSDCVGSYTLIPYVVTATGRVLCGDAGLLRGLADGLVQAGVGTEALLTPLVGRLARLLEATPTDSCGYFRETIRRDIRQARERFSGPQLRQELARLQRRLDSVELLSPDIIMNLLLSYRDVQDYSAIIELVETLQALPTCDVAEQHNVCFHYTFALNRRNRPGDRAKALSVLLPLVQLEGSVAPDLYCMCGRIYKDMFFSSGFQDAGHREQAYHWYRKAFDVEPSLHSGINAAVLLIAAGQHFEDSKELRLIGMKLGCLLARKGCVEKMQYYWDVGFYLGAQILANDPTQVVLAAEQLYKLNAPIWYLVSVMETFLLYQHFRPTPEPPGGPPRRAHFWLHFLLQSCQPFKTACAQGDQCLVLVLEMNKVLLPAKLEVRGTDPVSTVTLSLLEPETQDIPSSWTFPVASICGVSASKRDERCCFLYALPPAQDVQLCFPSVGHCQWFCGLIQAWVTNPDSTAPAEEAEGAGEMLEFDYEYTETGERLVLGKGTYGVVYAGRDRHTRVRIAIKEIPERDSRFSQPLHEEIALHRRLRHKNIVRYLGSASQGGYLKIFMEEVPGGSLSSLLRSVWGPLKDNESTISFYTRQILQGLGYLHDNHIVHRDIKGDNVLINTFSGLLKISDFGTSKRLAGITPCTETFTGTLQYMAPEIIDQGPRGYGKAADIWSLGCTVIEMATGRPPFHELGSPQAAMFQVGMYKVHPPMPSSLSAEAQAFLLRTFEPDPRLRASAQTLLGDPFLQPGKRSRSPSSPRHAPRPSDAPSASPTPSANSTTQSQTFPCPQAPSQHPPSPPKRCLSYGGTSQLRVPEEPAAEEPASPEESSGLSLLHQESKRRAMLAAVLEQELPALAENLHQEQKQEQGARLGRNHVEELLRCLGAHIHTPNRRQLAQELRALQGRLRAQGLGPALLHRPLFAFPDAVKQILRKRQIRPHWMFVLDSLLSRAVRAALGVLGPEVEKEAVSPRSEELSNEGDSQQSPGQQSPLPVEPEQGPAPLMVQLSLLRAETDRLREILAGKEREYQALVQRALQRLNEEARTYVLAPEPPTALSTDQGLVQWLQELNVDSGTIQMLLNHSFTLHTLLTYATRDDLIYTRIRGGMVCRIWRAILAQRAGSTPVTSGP

ICK = target: T3, ICK (Homo sapiens, UniProt Q9UPZ9); details: read-out: %Inh ICK
T3 sequence (Q9UPZ9 1-632): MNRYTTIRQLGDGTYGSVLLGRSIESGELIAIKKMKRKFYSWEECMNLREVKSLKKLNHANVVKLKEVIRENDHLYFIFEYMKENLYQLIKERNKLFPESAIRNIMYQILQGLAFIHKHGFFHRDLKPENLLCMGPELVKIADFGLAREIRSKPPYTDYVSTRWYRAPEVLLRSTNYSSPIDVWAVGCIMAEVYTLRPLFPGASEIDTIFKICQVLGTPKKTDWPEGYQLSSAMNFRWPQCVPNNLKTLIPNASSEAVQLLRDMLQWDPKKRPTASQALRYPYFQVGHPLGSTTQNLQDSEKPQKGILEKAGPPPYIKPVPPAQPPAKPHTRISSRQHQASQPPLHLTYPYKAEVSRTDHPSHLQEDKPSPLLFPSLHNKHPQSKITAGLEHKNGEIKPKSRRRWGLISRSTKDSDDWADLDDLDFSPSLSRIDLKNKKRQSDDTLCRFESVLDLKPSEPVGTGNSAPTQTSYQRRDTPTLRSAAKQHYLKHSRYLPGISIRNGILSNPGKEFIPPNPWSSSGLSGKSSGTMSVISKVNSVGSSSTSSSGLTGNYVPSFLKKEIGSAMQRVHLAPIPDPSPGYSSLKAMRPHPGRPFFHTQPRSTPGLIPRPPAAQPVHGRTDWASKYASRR

Chain of CDK4-cyclinD3 (P11802 whole entry): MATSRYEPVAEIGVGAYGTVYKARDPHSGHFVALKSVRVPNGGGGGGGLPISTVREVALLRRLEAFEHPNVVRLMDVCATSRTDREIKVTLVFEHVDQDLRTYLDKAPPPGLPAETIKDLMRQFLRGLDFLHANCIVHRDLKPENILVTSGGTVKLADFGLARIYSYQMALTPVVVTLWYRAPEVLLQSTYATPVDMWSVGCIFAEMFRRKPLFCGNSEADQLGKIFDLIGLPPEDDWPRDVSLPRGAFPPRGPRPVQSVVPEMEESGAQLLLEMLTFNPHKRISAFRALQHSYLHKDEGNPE
Chain of CDK4-cyclinD3 (P30281 whole entry partner): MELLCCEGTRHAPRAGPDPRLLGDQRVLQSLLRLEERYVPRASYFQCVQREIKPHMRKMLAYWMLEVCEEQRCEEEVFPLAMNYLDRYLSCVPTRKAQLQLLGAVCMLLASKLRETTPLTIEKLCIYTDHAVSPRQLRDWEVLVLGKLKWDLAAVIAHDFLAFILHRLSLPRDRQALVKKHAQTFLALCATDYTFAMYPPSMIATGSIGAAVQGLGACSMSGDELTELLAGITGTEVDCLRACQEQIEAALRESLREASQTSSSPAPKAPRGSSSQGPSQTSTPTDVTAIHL

SMILES | inhibition at 1 µM (EPHB6) [%] | inhibition at 1 µM (CDK4-cyclinD3) [%] | inhibition at 1 µM (ASK2) [%] | inhibition at 1 µM (ICK) [%]
Cn1cc(-c2cnc(N)c3c(-c4ccc5c(c4)CCN5C(=O)Cc4ccccc4)csc23)cn1 [UNC10225012A] | 98.3 | 0 | 17 | 100
O=c1cc(N2CCOCC2)nc2n(Cc3cccc(Cl)c3Cl)c(C3CC3)nn12 [UNC10225469A] | 33 | 0 | 0 | 4
COc1cccc(OC)c1C(=O)Nc1cccc(-c2nn3ccccc3c2-c2ccnc(Nc3cccc(F)c3)n2)c1 [UNC10225310A] | 42 | 7 | 0 | 0
CS(=O)(=O)Cc1ccc(Nc2nccc(-c3c(-c4cccc(NC(=O)C5CCCCC5)c4)nn4ncccc34)n2)cc1 [UNC10225159A] | 42 | 18 | 34 | 14
Cc1ccc(NC(=O)Nc2cccc(C(F)(F)F)c2)cc1 [UNC10225187A] | 21 | 0 | 0 | 0
